This is an account of results in paper PMC8348161, “Cardiolipin-Containing Lipid Membranes Attract the Bacterial Cell Division Protein DivIVA” (International Journal of Molecular Sciences, 2021).

Each structure is given as a SMILES string.

This test deals with T1, DivIVACd (Clostridioides difficile, UniProt Q182V3).
T1 construct: gene CD630_26190; full length, untagged (pET-26b) or His-SUMO tag cut by Ulp1 without extra residues; E. coli BL21(DE3)pLysS; forms large polymers
T1 sequence (Q182V3 1-175): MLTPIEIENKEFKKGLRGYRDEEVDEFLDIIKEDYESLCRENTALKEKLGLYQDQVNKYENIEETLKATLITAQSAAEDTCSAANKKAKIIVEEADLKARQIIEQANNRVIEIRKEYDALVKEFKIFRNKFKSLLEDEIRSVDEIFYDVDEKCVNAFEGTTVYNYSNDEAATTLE
The test is described as follows: QCM-D, protein titrated over supported lipid bilayer, Hill fit. Particulars: 5% CL in mixed bilayer (65% DOPC, 30% DOPG, 5% TOCL); protein concentration scale; Hill coefficient 1.0; pH 7.4, 250 mM KCl, 5 mM MgCl2, 23 °C. The test is classed as binding.

As usually defined, the Kd is a measure of binding affinity in units of concentration. Higher therefore signals lower affinity. On to `CCCCCCCC/C=C\CCCCCCCC(=O)OC[C@H](COP(=O)(O)OCC(O)COP(=O)(O)OC[C@@H](COC(=O)CCCCCCC/C=C\CCCCCCCC)OC(=O)CCCCCCC/C=C\CCCCCCCC)OC(=O)CCCCCCC/C=C\CCCCCCCC` (stereo partly shown) [TOCL, 1,3-bis[1,2-dioleoyl-sn-glycero-3-phospho]-glycerol], for which the Kd came out at 1300 nM. In other words, the single-digit micromolar range.
